{"source": "the supplement of paper PMC10307832", "experiment_in_all_cases": "relative viability (nuclei count vs DMSO), 5 days (fraction); higher = more cells survive", "key": {"HCC-366": {"system": "HCC-366", "outline": "(§1)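 Lung cancer cell lines in 1536-well plates were dosed by pin tool the day after seeding, either with one drug alone or with a fixed anchor-drug dose plus five library-drug doses (not always all listed) in √10 steps. After 5 days, cells were fixed and their nuclei stained in one step (final 0.05% Triton X-100, 1% formaldehyde, 1 ug/ml Hoechst), then counted on 4× images. Relative viability is the nuclei count in treated wells divided by that in vehicle wells. Values are medians of duplicate plates.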"}, "HCC-44": {"system": "HCC-44", "outline": "as §1"}, "LOU-NH91": {"system": "LOU-NH91", "outline": "as §1"}, "NCI-H1437": {"system": "NCI-H1437", "outline": "as §1"}, "NCI-H1648": {"system": "NCI-H1648", "outline": "as §1"}, "NCI-H2085": {"system": "NCI-H2085", "outline": "as §1"}, "NCI-H3122": {"system": "NCI-H3122", "outline": "as §1"}}, "data": [{"smiles": "O=c1cc(N2CCOCC2)oc2c(-c3cccc4c3sc3ccccc34)cccc12", "note": "+ CC(=O)Nc1cccc(-n2c(=O)n(C3CC3)c(=O)c3c(Nc4ccc(I)cc4F)n(C)c(=O)c(C)c32)c1 [Trametinib] (partner 0.02 µM)", "values": [{"measurement": "relative viability", "setting": "HCC-366; first compound 0.01 µM", "value": 0.411}, {"measurement": "relative viability", "setting": "HCC-366; first compound 0.03162 µM", "value": 0.355}, {"measurement": "relative viability", "setting": "HCC-366; first compound 0.1 µM", "value": 0.36}, {"measurement": "relative viability", "setting": "HCC-366; first compound 0.3162 µM", "value": 0.333}, {"measurement": "relative viability", "setting": "HCC-366; first compound 1 µM", "value": 0.322}, {"measurement": "relative viability", "setting": "HCC-44; first compound 0.01 µM", "value": 1.04}, {"measurement": "relative viability", "setting": "HCC-44; first compound 0.03162 µM", "value": 1.06}, {"measurement": "relative viability", "setting": "HCC-44; first compound 0.1 µM", "value": 1.02}, {"measurement": "relative viability", "setting": "HCC-44; first compound 0.3162 µM", "value": 1.04}, {"measurement": "relative viability", "setting": "HCC-44; first compound 1 µM", "value": 1.03}, {"measurement": "relative viability", "setting": "LOU-NH91; first compound 0.01 µM", "value": 0.801}, {"measurement": "relative viability", "setting": "LOU-NH91; first compound 0.03162 µM", "value": 0.798}, {"measurement": "relative viability", "setting": "LOU-NH91; first compound 0.1 µM", "value": 0.782}, {"measurement": "relative viability", "setting": "LOU-NH91; first compound 0.3162 µM", "value": 0.821}, {"measurement": "relative viability", "setting": "LOU-NH91; first compound 1 µM", "value": 0.767}, {"measurement": "relative viability", "setting": "NCI-H1437; first compound 0.01 µM", "value": 0.693}, {"measurement": "relative viability", "setting": "NCI-H1437; first compound 0.03162 µM", "value": 0.548}, {"measurement": "relative viability", "setting": "NCI-H1437; first compound 0.1 µM", "value": 0.531}, {"measurement": "relative viability", "setting": "NCI-H1437; first compound 0.3162 µM", "value": 0.508}, {"measurement": "relative viability", "setting": "NCI-H1437; first compound 1 µM", "value": 0.502}, {"measurement": "relative viability", "setting": "NCI-H1648; first compound 0.03162 µM", "value": 0.471}, {"measurement": "relative viability", "setting": "NCI-H1648; first compound 0.1 µM", "value": 0.5}, {"measurement": "relative viability", "setting": "NCI-H1648; first compound 0.3162 µM", "value": 0.446}, {"measurement": "relative viability", "setting": "NCI-H1648; first compound 1 µM", "value": 0.483}, {"measurement": "relative viability", "setting": "NCI-H2085; first compound 0.01 µM", "value": 0.515}, {"measurement": "relative viability", "setting": "NCI-H2085; first compound 0.03162 µM", "value": 0.541}, {"measurement": "relative viability", "setting": "NCI-H2085; first compound 0.1 µM", "value": 0.515}, {"measurement": "relative viability", "setting": "NCI-H2085; first compound 0.3162 µM", "value": 0.577}, {"measurement": "relative viability", "setting": "NCI-H2085; first compound 1 µM", "value": 0.454}, {"measurement": "relative viability", "setting": "NCI-H3122; first compound 0.01 µM", "value": 0.217}, {"measurement": "relative viability", "setting": "NCI-H3122; first compound 0.03162 µM", "value": 0.225}, {"measurement": "relative viability", "setting": "NCI-H3122; first compound 0.1 µM", "value": 0.245}, {"measurement": "relative viability", "setting": "NCI-H3122; first compound 0.3162 µM", "value": 0.216}, {"measurement": "relative viability", "setting": "NCI-H3122; first compound 1 µM", "value": 0.202}]}, {"smiles": "CCN(CC)CCCCNc1ncc2cc(-c3cc(OC)cc(OC)c3)c(NC(=O)NC(C)(C)C)nc2n1", "note": "+ CC(=O)Nc1cccc(-n2c(=O)n(C3CC3)c(=O)c3c(Nc4ccc(I)cc4F)n(C)c(=O)c(C)c32)c1 [Trametinib] (partner 0.02 µM)", "values": [{"measurement": "relative viability", "setting": "HCC-366; first compound 0.01 µM", "value": 0.352}, {"measurement": "relative viability", "setting": "HCC-366; first compound 0.03162 µM", "value": 0.386}, {"measurement": "relative viability", "setting": "HCC-366; first compound 0.1 µM", "value": 0.437}, {"measurement": "relative viability", "setting": "HCC-366; first compound 0.3162 µM", "value": 0.358}, {"measurement": "relative viability", "setting": "HCC-366; first compound 1 µM", "value": 0.309}, {"measurement": "relative viability", "setting": "HCC-44; first compound 0.01 µM", "value": 0.987}, {"measurement": "relative viability", "setting": "HCC-44; first compound 0.03162 µM", "value": 1.08}, {"measurement": "relative viability", "setting": "HCC-44; first compound 0.1 µM", "value": 1.1}, {"measurement": "relative viability", "setting": "HCC-44; first compound 0.3162 µM", "value": 1.11}, {"measurement": "relative viability", "setting": "HCC-44; first compound 1 µM", "value": 0.931}, {"measurement": "relative viability", "setting": "LOU-NH91; first compound 0.01 µM", "value": 0.758}, {"measurement": "relative viability", "setting": "LOU-NH91; first compound 0.03162 µM", "value": 0.771}, {"measurement": "relative viability", "setting": "LOU-NH91; first compound 0.1 µM", "value": 0.829}, {"measurement": "relative viability", "setting": "LOU-NH91; first compound 0.3162 µM", "value": 0.844}, {"measurement": "relative viability", "setting": "LOU-NH91; first compound 1 µM", "value": 0.766}, {"measurement": "relative viability", "setting": "NCI-H1437; first compound 0.01 µM", "value": 0.564}, {"measurement": "relative viability", "setting": "NCI-H1437; first compound 0.03162 µM", "value": 0.529}, {"measurement": "relative viability", "setting": "NCI-H1437; first compound 0.1 µM", "value": 0.622}, {"measurement": "relative viability", "setting": "NCI-H1437; first compound 0.3162 µM", "value": 0.521}, {"measurement": "relative viability", "setting": "NCI-H1437; first compound 1 µM", "value": 0.495}, {"measurement": "relative viability", "setting": "NCI-H1648; first compound 0.01 µM", "value": 0.368}, {"measurement": "relative viability", "setting": "NCI-H1648; first compound 0.03162 µM", "value": 0.49}, {"measurement": "relative viability", "setting": "NCI-H1648; first compound 0.1 µM", "value": 0.396}, {"measurement": "relative viability", "setting": "NCI-H1648; first compound 0.3162 µM", "value": 0.46}, {"measurement": "relative viability", "setting": "NCI-H1648; first compound 1 µM", "value": 0.367}, {"measurement": "relative viability", "setting": "NCI-H2085; first compound 0.01 µM", "value": 0.521}, {"measurement": "relative viability", "setting": "NCI-H2085; first compound 0.03162 µM", "value": 0.682}, {"measurement": "relative viability", "setting": "NCI-H2085; first compound 0.1 µM", "value": 0.496}, {"measurement": "relative viability", "setting": "NCI-H2085; first compound 0.3162 µM", "value": 0.469}, {"measurement": "relative viability", "setting": "NCI-H2085; first compound 1 µM", "value": 0.547}, {"measurement": "relative viability", "setting": "NCI-H3122; first compound 0.01 µM", "value": 0.246}, {"measurement": "relative viability", "setting": "NCI-H3122; first compound 0.03162 µM", "value": 0.229}, {"measurement": "relative viability", "setting": "NCI-H3122; first compound 0.1 µM", "value": 0.226}, {"measurement": "relative viability", "setting": "NCI-H3122; first compound 0.3162 µM", "value": 0.239}, {"measurement": "relative viability", "setting": "NCI-H3122; first compound 1 µM", "value": 0.247}]}, {"smiles": "O=c1cc(-c2cccc3c2Sc2ccccc2S3)oc(N2CCOCC2)c1", "note": "+ CC(=O)Nc1cccc(-n2c(=O)n(C3CC3)c(=O)c3c(Nc4ccc(I)cc4F)n(C)c(=O)c(C)c32)c1 [Trametinib] (partner 0.02 µM)", "values": [{"measurement": "relative viability", "setting": "HCC-366; first compound 0.08 µM", "value": 0.31}, {"measurement": "relative viability", "setting": "HCC-366; first compound 0.253 µM", "value": 0.474}, {"measurement": "relative viability", "setting": "HCC-366; first compound 0.8 µM", "value": 0.339}, {"measurement": "relative viability", "setting": "HCC-366; first compound 2.53 µM", "value": 0.33}, {"measurement": "relative viability", "setting": "HCC-366; first compound 8 µM", "value": 0.284}, {"measurement": "relative viability", "setting": "HCC-44; first compound 0.08 µM", "value": 0.993}, {"measurement": "relative viability", "setting": "HCC-44; first compound 0.253 µM", "value": 1.01}, {"measurement": "relative viability", "setting": "HCC-44; first compound 0.8 µM", "value": 0.985}, {"measurement": "relative viability", "setting": "HCC-44; first compound 2.53 µM", "value": 1.01}, {"measurement": "relative viability", "setting": "HCC-44; first compound 8 µM", "value": 1.07}, {"measurement": "relative viability", "setting": "LOU-NH91; first compound 0.08 µM", "value": 0.772}, {"measurement": "relative viability", "setting": "LOU-NH91; first compound 0.253 µM", "value": 0.884}, {"measurement": "relative viability", "setting": "LOU-NH91; first compound 0.8 µM", "value": 0.732}, {"measurement": "relative viability", "setting": "LOU-NH91; first compound 2.53 µM", "value": 0.719}, {"measurement": "relative viability", "setting": "LOU-NH91; first compound 8 µM", "value": 0.777}, {"measurement": "relative viability", "setting": "NCI-H1437; first compound 0.08 µM", "value": 0.47}, {"measurement": "relative viability", "setting": "NCI-H1437; first compound 0.253 µM", "value": 0.64}, {"measurement": "relative viability", "setting": "NCI-H1437; first compound 0.8 µM", "value": 0.483}, {"measurement": "relative viability", "setting": "NCI-H1437; first compound 2.53 µM", "value": 0.395}, {"measurement": "relative viability", "setting": "NCI-H1437; first compound 8 µM", "value": 0.412}, {"measurement": "relative viability", "setting": "NCI-H1648; first compound 0.253 µM", "value": 0.515}, {"measurement": "relative viability", "setting": "NCI-H1648; first compound 0.8 µM", "value": 0.427}, {"measurement": "relative viability", "setting": "NCI-H1648; first compound 8 µM", "value": 0.389}, {"measurement": "relative viability", "setting": "NCI-H2085; first compound 0.08 µM", "value": 0.526}, {"measurement": "relative viability", "setting": "NCI-H2085; first compound 0.253 µM", "value": 0.573}, {"measurement": "relative viability", "setting": "NCI-H2085; first compound 0.8 µM", "value": 0.441}, {"measurement": "relative viability", "setting": "NCI-H2085; first compound 2.53 µM", "value": 0.401}, {"measurement": "relative viability", "setting": "NCI-H2085; first compound 8 µM", "value": 0.446}, {"measurement": "relative viability", "setting": "NCI-H3122; first compound 0.08 µM", "value": 0.259}, {"measurement": "relative viability", "setting": "NCI-H3122; first compound 0.253 µM", "value": 0.299}, {"measurement": "relative viability", "setting": "NCI-H3122; first compound 0.8 µM", "value": 0.314}, {"measurement": "relative viability", "setting": "NCI-H3122; first compound 2.53 µM", "value": 0.193}, {"measurement": "relative viability", "setting": "NCI-H3122; first compound 8 µM", "value": 0.292}]}]}
